In US20250213478A1, “CATIONIC LIPID HAVING DISULFIDE BOND, LIPID MEMBRANE STRUCTURE INCLUDING SAME, NUCLEIC ACID INTRODUCTION AGENT AND PHARMACEUTICAL COMPOSITION CONTAINING ANY ONE OF SAME, METHOD FOR INTRODUCING NUCLEIC ACID INTO CELL OR TARGET CELL, AND METHOD FOR PRODUCING CELLULAR PHARMACEUTICAL” (NOF Corporation, priority 2022, published 2025):

Legend:
BALB/c mouse = assay: Evaluation of in vivo gene expression (luciferase mRNA-encapsulating LNP, IVIS of isolated organs)
Protocol: (§1) LNP encapsulating mRNA that expresses luciferase (cationic lipid:DOPC:Chol:DMG-PEG2k=55:5:40:1 (molar ratio)) was prepared by the method described in [Experimental Example 2], 1.
The prepared each mRNA-encapsulating LNP dispersion was administered from the tail vein of BALB/c mouse (male, 5-week-old). The dose of mRNA was set to 0.05 mg per 1 kg body weight of the mouse, and the dose of the mRNA-encapsulating LNP dispersion was set to 10 μL per 1 g body weight of the mouse. After 4.5 hr from the administration of the mRNA-encapsulating LNP dispersion, a PBS solution of D-luciferin potassium was administered into the abdominal cavity of the mouse. The dose of D-luciferin potassium was set to 3 mg per mouse, and the dose of the PBS solution of D-luciferin potassium was set to 200 μL per mouse. After 15 min from the administration of the PBS solution of D-luciferin potassium, the mouse was euthanized, and the liver, spleen, kidney, heart, and lung were isolated. The luminescence in each organ was quantified using an in vivo imaging system (IVIS) with an exposure of 10 sec. The amount of luminescence in each organ was quantified by image analysis using Live Imaging software attached to IVIS. The amount of luminescence (photons/sec) was calculated from the acquired image and used as an index of gene expression activity. “E+0a” (a: integer) indicated in Table 7 and Table 8 means “10^a”. For example, “1.0E+02” means “1.0×10^2”. In Comparative Example, the cationic lipid described in the aforementioned Table 3 were used.

HeLa cells = assay: Evaluation of in vitro gene expression in HeLa cell (luciferase mRNA-encapsulating LNP); type: cell-based, human; details: for cumulative luciferase luminescence intensity over 24 hr: luciferase mRNA 0.4 μg per dish, LNP cationic lipid:DOPC:Chol:DMG-PEG2k=55:5:40:1; for gene expression activity compared to Comparative Example: result in words
Protocol: as §1
HeLa cells, which are human cervical cancer cells, were seeded in a 3.5 cm dish at 5.0×10^4 cells/2 mL/Dish 24 hours before transfection. After 24 hours, the medium was exchanged with a culture medium (D-MEM) containing 0.1 mM D-luciferin. Prepared mRNA-encapsulating LNP was diluted with PBS such that the concentration of mRNA was about 8 μg/mL. The diluted mRNA-encapsulating LNP solution (about 50 μL, mRNA: 0.4 μg) was added to the 3.5 cm dish and set in an incubator luminometer KronosDio. The luminescence intensity of luciferase was measured for 2 min every one hour. The cumulative luciferase luminescence intensity for 24 hr was calculated from the obtained time change of expression. For example, “1.0E+06” means “1.0×10^6”. In Comparative Example, the cationic lipid described in the aforementioned Table 3 were used.

[1] = Particle size, PdI and zeta potential of mRNA-encapsulating LNPs (dynamic light scattering); type: physicochemical; details: mRNA-encapsulating LNP, cationic lipid:DOPC:Chol=55:5:40 + about 1 mol DMG-PEG2k; for PdI / particle size: dynamic light scattering; for zeta potential: physiological pH
Protocol: (§2) A 10 mM ethanol solution of cationic lipid, a 5 mM ethanol solution of DOPC, and a 10 mM ethanol solution of Chol were mixed at desired ratio (cationic lipid:DOPC:Chol=55:5:40 (molar ratio)) in an Eppendorf tube to achieve the total lipid amount of 720 nmol. To the obtained mixture was further added DMG-PEG2k (2 mM ethanol solution) in an amount of about 1 mol with respect to the total amount 100 mol of cationic lipid, DOPC, and Chol, and then ethanol was added to prepare an ethanol solution of the lipid (total amount: 360 μL).
An acidic buffer solution (total amount: 1080 μL) of nucleic acid was prepared by weighing 7.2 μg of mRNA solution (0.6 mg/mL) in a 5 mL tube and adding acidic malate buffer (20 mM, pH 3.0) containing NaCl at a final concentration of 30 mM.
An acidic buffer solution of nucleic acid and an ethanol solution of lipid were each weighed in a syringe. Using an ultra high-speed nanomedicament producing apparatus NanoAssmblr (manufactured by Precision NanoSystems), LNP was prepared under the conditions of addition rate of acidic buffer solution of nucleic acid: 3 mL/min, addition rate of ethanol solution of lipid: 1 mL/min, and syringe holder temperature: 25° C., and collected in a 15 mL tube. MES buffer (pH 6.5) (3000 μL) was added to the 15 mL tube, the obtained mixture was transferred to Amicon Ultra 4, and ultrafiltration was performed under centrifugation conditions (25° C., 1000 g, 6 min) to concentrate the mixture to about 100 μL. The obtained concentrate was diluted with PBS to 4 mL, and the mixture was concentrated again under centrifugation conditions (25° C., 1000 g, 6 min), and this operation was performed twice. The obtained concentrate was diluted with PBS to a lipid concentration of 2 mM to give a dispersion containing LNP.
The particle size, PdI (Polydispersity Index), and zeta potential of the mRNA-encapsulating LNP prepared by the method of the above-mentioned 1 were measured by a dynamic light scattering method. In Comparative Example, the cationic lipid described in the aforementioned Table 3 were used.

[2] = Measurement of Liposomal pKa of LNP (TNS fluorescence); type: physicochemical; details: LNP without nucleic acid, cationic lipid:DOPC:Chol=52.5:7.5:40 + about 1.5 mol DMG-PEG2k; pH at which relative TNS fluorescence intensity was 50%
Protocol: Lipid nanoparticles (LNP) without containing nucleic acid were used for the evaluation of Liposomal pKa.
as §2, with “(cationic lipid:DOPC:Chol=52.5:7.5:40” for “(cationic lipid:DOPC:Chol=55:5:40”, “about 1.5” for “about 1”
An acidic malic acid buffer (20 mM, pH 3.0) (1080 μL) containing NaCl at a final concentration of 30 mM and an ethanol solution (360 μL) of lipid were each weighed in a syringe. Using an ultra high-speed nanomedicament producing apparatus NanoAssmblr (manufactured by Precision NanoSystems), LNP was prepared under the conditions of addition rate of acidic buffer solution: 3 mL/min, addition rate of ethanol solution of lipid: 1 mL/min, and syringe holder temperature: 25° C., and collected in a 15 mL tube. MES buffer (pH 6.5) (3000 μL) was added to the 15 mL tube, the obtained mixture was transferred to Amicon Ultra 4, and ultrafiltration was performed under centrifugation conditions (25° C., 1000 g, 6 min) to concentrate the mixture to about 100 μL. The obtained concentrate was diluted with PBS to 4 mL, and the mixture was concentrated again under centrifugation conditions (25° C., 1000 g, 6 min), and this operation was performed twice. The obtained concentrate was diluted with PBS to a lipid concentration of 0.5 mM to give a dispersion containing LNP.
20 mM Citrate buffer, sodium phosphate buffer, and tris HCl buffer, each containing NaCl at a final concentration of 150 mM and adjusted to various pHs within the range of pH 3.0 to 10.0, were prepared. TNS (manufactured by Sigma) was diluted with ultrapure water to 0.6 mM. TNS solution (2 μL), dispersions (12 μL) containing LNP prepared in [Experimental Example 1], 1., and buffers adjusted to various pHs (186 μL) were added to a black 96 well plate. The plate was protected from light and shaken at 400 rpm for 10 min. The fluorescence intensity (excitation: 321 nm/emission: 447 nm) was measured using a plate reader (manufactured by TECAN). The relative fluorescence intensity was calculated as a percentage, with the maximum value of the fluorescence intensity in each LNP being 100% and the minimum value being 0%. Furthermore, the pH at which the relative fluorescence intensity was 50% was taken as Liposomal pKa. In Comparative Example, the cationic lipid described in the aforementioned Table 3 were used.

Row | SMILES | relative value based on Comparative Example (amount of luminescence in spleen) (BALB/c mouse; spleen, relative to O-Ph-P4C2 LNP = 1.00) | amount of luminescence in spleen (BALB/c mouse; tail vein, mRNA 0.05 mg/kg, spleen (Table 8)) [photons/sec] | cumulative luciferase luminescence intensity over 24 hr (HeLa cells) [RLU] | PdI [1] | particle size [1] [nm] | zeta potential [1] [mV] | pKa [2] | gene expression activity compared to Comparative Example (HeLa cells)
1 | CCCCCCCC/C=C\CCCCCCCC(=O)Oc1ccc(CC(=O)OCCC2CCN(CCSSCCN3CCC(CCOC(=O)Cc4ccc(OC(=O)CCCCCCC/C=C\CCCCCCCC)cc4)CC3)CC2)cc1 [Comparative Example, O-Ph-P4C2, reference compound] | 1.00 | 1.08E+07 | 1.11E+07 | 0.064 | 73 | −1.5 | 6.3 | –
2 | CCCCCCCCCCC(CCCCCCCCCC)C(=O)Oc1ccc(CC(=O)OCCSSCCOC(=O)CCCN(C)C)cc1 [Example 5] | – | – | 2.15E+08 | 0.081 | 74 | −2.9 | 7.8 | superior gene expression activity
3 | CCCCCCCCCCCCCCCCC(CCCCCCCCCCCCCCCC)C(=O)Oc1ccc(CC(=O)OCCSSCCOC(=O)CCCN(C)C)cc1 [Example 8] | – | – | 2.83E+08 | 0.101 | 72 | 5.3 | 7.8 | superior gene expression activity
4 | CCCCCCCCCCCCCCCCCCC(CCCCCCCCCCCCCCCCCC)C(=O)Oc1ccc(CC(=O)OCCSSCCOC(=O)CCCN(C)C)cc1 [Example 9] | – | – | 1.25E+08 | 0.168 | 96 | 12.1 | 7.8 | superior gene expression activity
5 | CCCCCCCCCCCCCCCCC(CCCCCCCCCCCCCCCC)C(=O)Oc1ccc(CC(=O)OCCSSCCOC(=O)CCCN(CC)CC)cc1 [Example 10] | – | – | 1.90E+08 | 0.077 | 80 | 4.9 | 7.4 | superior gene expression activity
6 | CCCCCCCCCCCCCCCCC(CCCCCCCCCCCCCCCC)C(=O)Oc1ccc(CC(=O)OCCSSCCOC(=O)CCCN2CCCCC2)cc1 [Example 11] | – | – | 6.71E+07 | 0.079 | 86 | −0.9 | 7 | superior gene expression activity
7 | CCCCCCCCCCCCCCCCC(CCCCCCCCCCCCCCCC)C(=O)Oc1ccc(CC(=O)OCCSSCCOC(=O)CCCN(CCC)CCC)cc1 [Example 12] | – | – | 1.13E+05 | 0.071 | 84 | −4.4 | 6.2 | –
8 | CCCCCCCC/C=C\CCCCCCCC(=O)Oc1ccc(CC(=O)OCCSSCCOC(=O)CCCN(C)C)cc1OC(=O)CCCCCCC/C=C\CCCCCCCC [Example 15] | – | – | 8.22E+07 | 0.112 | 65 | 6.0 | 6.3 | superior gene expression activity
9 | CCCCCCCCCCCCCCCCC(CCCCCCCCCCCCCCCC)C(=O)Oc1ccc(CC(=O)OCCSSCCN(CC)CC)cc1 [Example 17] | – | – | 8.39E+04 | 0.064 | 105 | −2.6 | 6.2 | –
10 | CCCCCCCCCCCCCCCCC(CCCCCCCCCCCCCCCC)C(=O)Oc1ccc(CC(=O)NCCSSCCNC(=O)CN(C)C)cc1 [Example 18] | – | – | 3.99E+06 | 0.132 | 105 | 5.3 | 6.8 | –
11 | CCCCCCCCCCCCCCCCC(CCCCCCCCCCCCCCCC)C(=O)Oc1ccc(CC(=O)NCCSSCCNC(=O)CCN(C)C)cc1 [Example 19] | – | – | 2.55E+07 | 0.121 | 73 | 13.1 | 8.2 | superior gene expression activity
